From ChEMBL document CHEMBL1201862, “PubChem BioAssay data set” (2004)
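Interpolation was linear, between the two tested concentrations surrounding the appropriate level; five concentrations were tested over 48 hours in 96-well plates. GI50: concentration for 50% inhibition of growth.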 The source made the active and inactive calls. Rule as the data show it: active = GI50 up to about 1.1 µM and inactive = higher.

Key:
Test in all cases: NCI anticancer screen, dose series, 48 h
SK-MEL-2 = test system: SK-MEL-2
SNB-75 = test system: SNB-75
HOP-92 = test system: HOP-92
NCI-H522 = test system: NCI-H522
NCI-H460 = test system: NCI-H460
SN12C = test system: SN12C
UACC-257 = test system: UACC-257
CAKI-1 = test system: CAKI-1
EKVX = test system: EKVX
NCI-H226 = test system: NCI-H226
786-0 = test system: 786-0
K562 = test system: K562
COLO 205 = test system: COLO 205
A498 = test system: A498
XF498 = test system: XF498
M19-MEL = test system: M19-MEL
UACC-62 = test system: UACC-62
SNB-19 = test system: SNB-19
TK-10 = test system: TK-10
SK-MEL-28 = test system: SK-MEL-28
UO-31 = test system: UO-31
SF-268 = test system: SF-268
LXFL 529 = test system: LXFL 529
HOP-62 = test system: HOP-62
RPMI-8226 = test system: RPMI-8226
DMS-114 = test system: DMS-114
HCT-15 = test system: HCT-15
LOX IMVI = test system: LOX IMVI
NCI-H23 = test system: NCI-H23
SF-539 = test system: SF-539
U-251 = test system: U-251
KM-20L2 = test system: KM-20L2
OVCAR-3 = test system: OVCAR-3
SNB-78 = test system: SNB-78
DMS-273 = test system: DMS-273
HCT-116 = test system: HCT-116
MOLT-4 = test system: MOLT-4
HCC 2998 = test system: HCC 2998
RXF 631 = test system: RXF 631
CCRF-CEM = test system: CCRF-CEM
DLD-1 = test system: DLD-1
OVCAR-4 = test system: OVCAR-4
Malme-3M = test system: Malme-3M
OVCAR-8 = test system: OVCAR-8
HL-60 = test system: HL-60
SK-OV-3 = test system: SK-OV-3
OVCAR-5 = test system: OVCAR-5
SW-620 = test system: SW-620
HT-29 = test system: HT-29
SK-MEL-5 = test system: SK-MEL-5
A549 = test system: A549
IGROV-1 = test system: IGROV-1
M14 = test system: M14
SF-295 = test system: SF-295

Measured: GI50

CCCCCCCCCCCCCCC(O)C1CCC(C(O)CCC(O)CCCCCC(O)CC2=CC(C)OC2=O)O1 (centres undefined)
inactive: SK-MEL-2 2.54 µM | SNB-75 2.22 µM | HOP-92 2.06 µM | NCI-H522 1.14 µM | NCI-H460 1.79 µM | SN12C 1.24 µM | CAKI-1 8.13 µM | EKVX 1.93 µM | 786-0 2.43 µM | COLO 205 2.43 µM | A498 4.45 µM | M19-MEL 2 µM | UACC-62 2.33 µM | SNB-19 1.81 µM | TK-10 4.27 µM | SK-MEL-28 1.93 µM | LXFL 529 2.11 µM | HOP-62 1.55 µM | LOX IMVI 1.18 µM | SF-539 1.3 µM | U-251 2.74 µM | KM-20L2 3.4 µM | OVCAR-3 1.13 µM | SNB-78 1.49 µM | DMS-273 1.4 µM | HCT-116 1.36 µM | HCC 2998 2.51 µM | RXF 631 2.94 µM | CCRF-CEM 1.29 µM | DLD-1 2.31 µM | Malme-3M 1.58 µM | OVCAR-8 2.07 µM | SK-OV-3 4.73 µM | OVCAR-5 4.4 µM | SW-620 2.52 µM | HT-29 1.82 µM | A549 2.2 µM | IGROV-1 1.44 µM | M14 6.3 µM | SF-295 1.26 µM
active: UACC-257 180 nM | NCI-H226 1.09 µM | K562 12.3 nM | XF498 1.12 µM | UO-31 60.4 nM | SF-268 832 nM | RPMI-8226 187 nM | DMS-114 < 10 nM | NCI-H23 < 10 nM | MOLT-4 640 nM | OVCAR-4 13 nM | HL-60 11.7 nM | SK-MEL-5 13.1 nM
1290 nM: HCT-15
